Source: patent publication US20180078576A1, “SULPHATED XYLANS FOR TREATMENT OR PROPHYLAXIS OF RESPIRATORY DISEASES” (Paradigm Biopharmaceuticals Limited, priority 2007, published 2018)

Legend:
[1] = biological target: T1, recombinant human IL-5 (rhIL-5) (Homo sapiens, UniProt P05113); test: BIAcore inhibition of IL-5 binding to immobilized heparin; conditions: BIAcore chip, titration, FIG. 3B
T1 construct: made in house; host or cells: baculovirus expression system
T1 sequence (P05113 20-134): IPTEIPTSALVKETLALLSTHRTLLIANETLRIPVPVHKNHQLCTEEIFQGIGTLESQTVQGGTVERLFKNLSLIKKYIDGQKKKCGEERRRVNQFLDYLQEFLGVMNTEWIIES
Description: The optical phenomenon of surface plasmon resonance is used to monitor physical interactions between molecules. Passing a solution of a potential protein ligand (e.g. IL-4, IL-5 or eotaxin) over a sensor surface to which a target (e.g. heparin) is coupled monitors the real-time binding of protein ligands to the immobilized target. Detection is achieved by measuring refractive index changes very close to the sensor surface. When the refractive index is altered, the angle at which plasmon resonance occurs changes and this change directly correlates with the amount of protein interacting with the surface. A BIAcore 2000 is conveniently used. […]
Biotinylated heparin is immobilized on the biosensor chip. […] Solutions containing potential protein ligands of interest are injected over the sensor chip surface, and the binding is measured in real time (Fernig, In: Proteoglycan protocols, Ed. R. V. Iozzo, Humana Press, Totowa, N.J., USA, 2001). Baculovirus expressed recombinant human IL-4 (rhIL-4) and baculovirus expressed recombinant human IL-5 (rhIL-5) readily bind to heparin immobilized by this method (see PCT/AU2005/000551). […] Similarly, recombinant human eotaxin (CCL11) expressed in E. coli binds readily to immobilized heparin and binding is specific as there is little eotaxin binding to sensor chips lacking heparin. […]

[2] = tested on: male C57Bl/6J mice exposed to cigarette smoke; test: Mouse model of emphysema/COPD, acute cigarette smoke exposure; type: in vivo; conditions: PPS inhaled 30 minutes before
Experimental: A mouse model of emphysema was used. Acute and chronic exposure of mice to cigarette smoke lead to lung responses that in part mimic the inflammatory and structural changes observed in COPD. In this model male C57Bl/6J mice are subjected to acute and chronic smoke exposure, with normal room air being the control situation. In the acute study mice were exposed to either room air or to the smoke of five cigarettes (approximately 12 mg of tar and 0.9 mg of nicotine) for 20 minutes. In the chronic study mice were exposed to either room air or to the smoke of three cigarettes/day for 5 days/week for 6 months. The 4 groups of mice were then further divided so that mice within each group also received PPS via an inhaled route.
In the acute exposure groups of mice pentosan polysulfate was given 30 minutes before exposure to cigarette smoke. Assessment of the efficacy of the drug for mice in the acute exposure groups involved assessment of trolox equivalent anti-oxidant capacity of the bronchoalveolar lavage fluid (BALF) at the end of smoke exposure. The BALF was examined for cytokines and chemokines that are associated with an inflammatory response. The levels of these agents were determined at 4 hours after exposure and at 24 hours after cigarette smoke exposure. A range of cytokines and chemokines was measured. […] A differential cell count of the cells in the BALF was also determined.

[3] = relative to heparin; cited from earlier work

Substance: Pentosan polysulfate [PPS]
- IC50 [1]: 4 to 10 nM
- Cellular infiltrate into BALF [2]: decreased
- Numbers of neutrophils in BALF [2]: significantly attenuated
- Anticoagulant activity as fraction of that of heparin [3]: about 1/15
